Measured values published in patent US20230131899A1, “INHIBITORS OF MICROBIALLY INDUCED AMYLOID” (Axial Therapeutics, Inc., priority 2020, published 2023).
pIC50: −log10 of the molar value. Read-outs that look alike come from different tables or passages of the source.

Tested on: CsgA gene expression (csgBAC promoter-GFP reporter) in E. coli UTI89
Experiment: In vitro live cell fluorescent reporter assay of CsgA transcription (Reporter Assay)
Assay type: cell-based
Conditions: Escherichia coli; for pIC50: read-out: Reporter Assay Abs IC50 (activity range), median Abs IC50 in the CsgA reporter assay, class symbol; for IC50: read-out: Reporter Assay Abs IC50 (μM), median Abs IC50 in the CsgA reporter assay, N/A = maximum expression reduction is <50% of control
How it was run: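 Chromosomal single-copy csgBAC promoter–GFP reporter in E. coli UTI89, started at OD600 0.003 in YESCA broth with compound (0.14–100 μM, 1% DMSO), 20 h at 27 °C. GFP (ex 485/em 525 nm) background-subtracted and normalized to vehicle; IC50 and X[50] from curve fits. OD600 tracked growth effects.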

Row | SMILES | pIC50 | IC50 [µM]
1 | CN(C)CCN1CC(C(=O)O)n2c(c(-c3cccc(C(F)(F)F)c3)c(Cc3cccc4ccccc34)cc2=O)S1(=O)=O (stereo not drawn) [Compound 017, 2-(2-(dimethylamino)ethyl)-8-(naphthalen-1-ylmethyl)-6-oxo-9-(3-(trifluoromethyl)phenyl)-3,4-dihydro-2H,6H-pyrido[1,2-e][1,2,5]thiadiazine-4-carboxylic acid 1,1-dioxide] | 5.35 to 5.89 | 2.7
2 | CCCN1CC(C(=O)O)n2c(c(-c3cccc(C(F)(F)F)c3)c(Cc3cccc4ccccc34)cc2=O)S1(=O)=O (racemic) [Compound 016, 8-(naphthalen-1-ylmethyl)-6-oxo-2-propyl-9-(3-(trifluoromethyl)phenyl)-3,4-dihydro-2H,6H-pyrido[1,2-e][1,2,5]thiadiazine-4-carboxylic acid 1,1-dioxide] | 5.00 to 5.34 | 5
3 | O=C(O)[C@@H]1CS(=O)(=O)c2c(-c3cccc(C(F)(F)F)c3)c(Cc3cccc4ccccc34)cc(=O)n21 (single isomer, unassigned) [Compound 010a, 7-(naphthalen-1-ylmethyl)-5-oxo-8-(3-(trifluoromethyl)phenyl)-2,3-dihydro-5H-thiazolo[3,2-a]pyridine-3-carboxylic acid 1,1-dioxide] | < 5.00 | 43.9
4 | O=C(O)C1CN(CCCCCO)S(=O)(=O)c2c(-c3cccc(C(F)(F)F)c3)c(Cc3cccc4ccccc34)c(NC3CCCC3)c(=O)n21 (stereo not drawn) [Compound 122, 7-(cyclopentylamino)-2-(5-hydroxypentyl)-8-(naphthalen-1-ylmethyl)-6-oxo-9-(3-(trifluoromethyl)phenyl)-3,4-dihydro-2H,6H-pyrido[1,2-e][1,2,5]thiadiazine-4-carboxylic acid 1,1-dioxide] | 5.35 to 5.89 | 1.9
5 | O=C(O)C1CSc2c(-c3cccc(C(F)(F)F)c3)c(Cc3cccc4ccccc34)cc(=O)n21 (single isomer, unassigned) [Compound 011a, 7-(naphthalen-1-ylmethyl)-5-oxo-8-(3-(trifluoromethyl)phenyl)-2,3-dihydro-5H-thiazolo[3,2-a]pyridine-3-carboxylic acid] | 5.35 to 5.89 | 4.4
6 | O=C(O)C1C[S+]([O-])c2c(-c3cccc(C(F)(F)F)c3)c(Cc3cccc4ccccc34)cc(=O)n21 (racemic) [Compound 027b, 7-(naphthalen-1-ylmethyl)-5-oxo-8-(3-(trifluoromethyl)phenyl)-2,3-dihydro-5H-thiazolo[3,2-a]pyridine-3-carboxylic acid 1-oxide] | < 5.00 | 77.5
7 | O=C(O)C1CSc2c(-c3cccc(C(F)(F)F)c3)c(Cc3cccc4ccccc34)nc(=O)n21 (stereo not drawn) [Compound 022, 7-(naphthalen-1-ylmethyl)-5-oxo-8-(3-(trifluoromethyl)phenyl)-2,3-dihydro-5H-thiazolo[3,2-c]pyrimidine-3-carboxylic acid] | 5.35 to 5.89 | 4.1
8 | CN1CC(C(N)=O)n2c(c(-c3cccc(C(F)(F)F)c3)c(Cc3cccc4ccccc34)cc2=O)S1(=O)=O (stereo not drawn) [Compound 030, 2-methyl-8-(naphthalen-1-ylmethyl)-6-oxo-9-(3-(trifluoromethyl)phenyl)-3,4-dihydro-2H,6H-pyrido[1,2-e][1,2,5]thiadiazine-4-carboxamide 1,1-dioxide] | 5.00 to 5.34 | 5
9 | CCCN1CC(C(=O)O)n2c(c(-c3cccc(C(F)(F)F)c3)c(Cc3cccc4ccccc34)c(NC3CCCC3)c2=O)S1(=O)=O (stereo not drawn) [Compound 126, 7-(cyclopentylamino)-8-(naphthalen-1-ylmethyl)-6-oxo-2-propyl-9-(3-(trifluoromethyl)phenyl)-3,4-dihydro-2H,6H-pyrido[1,2-e][1,2,5]thiadiazine-4-carboxylic acid 1,1-dioxide] | 5.35 to 5.89 | 1.9
10 | NC(=O)CN1CC(C(=O)O)n2c(c(-c3cccc(C(F)(F)F)c3)c(Cc3cccc4ccccc34)cc2=O)S1(=O)=O (stereo not drawn) [Compound 028, 2-(2-amino-2-oxoethyl)-8-(naphthalen-1-ylmethyl)-6-oxo-9-(3-(trifluoromethyl)phenyl)-3,4-dihydro-2H,6H-pyrido[1,2-e][1,2,5]thiadiazine-4-carboxylic acid 1,1-dioxide] | < 5.00 | 18.2
11 | O=C(O)[C@H]1CS(=O)(=O)c2c(-c3cccc(C(F)(F)F)c3)c(Cc3cccc4ccccc34)cc(=O)n21 (single isomer, unassigned) [Compound 010b, 7-(naphthalen-1-ylmethyl)-5-oxo-8-(3-(trifluoromethyl)phenyl)-2,3-dihydro-5H-thiazolo[3,2-a]pyridine-3-carboxylic acid 1,1-dioxide] | < 5.00 | 58.5
12 | CN1CC(C(=O)O)n2c(c(-c3cccc(C(F)(F)F)c3)c(Cc3cccc4ccccc34)c(C(N)=O)c2=O)S1(=O)=O (stereo not drawn) [Compound 109, 7-carbamoyl-2-methyl-8-(naphthalen-1-ylmethyl)-6-oxo-9-(3-(trifluoromethyl)phenyl)-3,4-dihydro-2H,6H-pyrido[1,2-e][1,2,5]thiadiazine-4-carboxylic acid 1,1-dioxide] | 5.35 to 5.89 | 1.9
13 | CCCCCN1CC(C(=O)O)n2c(c(-c3cccc(C(F)(F)F)c3)c(Cc3cccc4ccccc34)cc2=O)S1(=O)=O (racemic) [Compound 025, 8-(naphthalen-1-ylmethyl)-6-oxo-2-pentyl-9-(3-(trifluoromethyl)phenyl)-3,4-dihydro-2H,6H-pyrido[1,2-e][1,2,5]thiadiazine-4-carboxylic acid 1,1-dioxide] | 5.35 to 5.89 | 1.9
14 | CN1CC(C(=O)O)n2c1c(-c1cccc(C(F)(F)F)c1)c(Cc1cccc3ccccc13)c(Br)c2=O (stereo not drawn) [Compound 119, 6-bromo-1-methyl-7-(naphthalen-1-ylmethyl)-5-oxo-8-(3-(trifluoromethyl)phenyl)-1,2,3,5-tetrahydroimidazo[1,2-a]pyridine-3-carboxylic acid] | 5.35 to 5.89 | 2.5
15 | CC(C)N1CC(C(=O)O)n2c(c(-c3cccc(C(F)(F)F)c3)c(Cc3cccc4ccccc34)c(NC3CCCC3)c2=O)S1(=O)=O (stereo not drawn) [Compound 123, 7-(cyclopentylamino)-2-isopropyl-8-(naphthalen-1-ylmethyl)-6-oxo-9-(3-(trifluoromethyl)phenyl)-3,4-dihydro-2H,6H-pyrido[1,2-e][1,2,5]thiadiazine-4-carboxylic acid 1,1-dioxide] | 5.35 to 5.89 | 3.3
16 | O=C(O)CN1CC(C(=O)O)n2c(c(-c3cccc(C(F)(F)F)c3)c(Cc3cccc4ccccc34)cc2=O)S1(=O)=O (stereo not drawn) [Compound 018, 2-(carboxymethyl)-8-(naphthalen-1-ylmethyl)-6-oxo-9-(3-(trifluoromethyl)phenyl)-3,4-dihydro-2H,6H-pyrido[1,2-e][1,2,5]thiadiazine-4-carboxylic acid 1,1-dioxide] | < 5.00 | 148
17 | CN1CC(C(=O)O)n2c(c(-c3cccc(C(F)(F)F)c3)c(Cc3cccc4ccccc34)c(N)c2=O)S1(=O)=O (stereo not drawn) [Compound 074, 7-amino-2-methyl-8-(naphthalen-1-ylmethyl)-6-oxo-9-(3-(trifluoromethyl)phenyl)-3,4-dihydro-2H,6H-pyrido[1,2-e][1,2,5]thiadiazine-4-carboxylic acid 1,1-dioxide] | < 5.00 | 29.2
18 | CCCN1CC(C(=O)O)n2c(c(-c3cccc(C(F)(F)F)c3)c(Cc3cccc4ccccc34)c(NC3CCOCC3)c2=O)S1(=O)=O (stereo not drawn) [Compound 127, 8-(naphthalen-1-ylmethyl)-6-oxo-2-propyl-7-((tetrahydro-2H-pyran-4-yl)amino)-9-(3-(trifluoromethyl)phenyl)-3,4-dihydro-2H,6H-pyrido[1,2-e][1,2,5] thiadiazine-4-carboxylic acid 1,1-dioxide] | 5.00 to 5.34 | 4.8
